System: plaque biofilm grown from pooled human saliva (3-day biofilm)
Assay: in vitro plaque glycolysis model (iPGRM): acid production and acid inhibition
Format: cell-based
Method: Acid production and acid inhibition were determined with the in vitro plaque glycolysis model (iPGRM). The purpose of this technique is to provide a simple and quick method for determining if compounds have an influence on the metabolic pathways that plaque microorganisms utilize to produce toxins that adversely affect gingival health.
The in vitro plaque glycolysis model (iPGRM) is a technique in which plaque is grown from human saliva and treated with various agents to determine anti-glycolytic activity of treatments. When bacteria convert sugar into energy with the help of enzymes, acids are formed. These acids demineralize and damage the dental enamel. […]
A plaque biofilm was grown on glass rods from fresh pooled human saliva and Trypticase Soy Broth (TSB) at 37° C. over […] by dipping glass rods into and out of media in a reciprocating motion. […] The pH of the media solutions was then measured to determine the amount of glycolysis inhibition relative to a negative control.
On Day 1, new glass rods (5 mm×90 mm) were polished approximately 25 mm from the untapered end on a lathe with silicon carbide paper of 240, 320, 400, and 600 grit used sequentially. […] After polishing, rods were stored until ready to run test. […]

Structure (SMILES): [H]/N=C(\N/C(=N/[H])NCCCCCCNC(=N)NC(=N)Nc1ccc(Cl)cc1)Nc1ccc(Cl)cc1 [1% Chlorhexidine, Chlorhexidine]
- Acid Production (ΔpH) Mean (Table 2, 2 min treatment with 1:5 slurry in water): 0.30 ΔpH
- Mean Acid Inhibition (%) Mean (Table 2, relative to negative control Crest Cavity Protection): 80.77%
